# Data: ChEMBL document CHEMBL5465560, “Selectivity Literature for EUbOPEN Chemogenomic Library” (2024)
# Tests used:
# [1] = target: Protein kinase C delta type (Homo sapiens) (UniProt Q05655); experiment: Selectivity interaction (KinomeScan (DiscoverX)) EUB0001049a PRKCD; details: at 1 µM
# [2] = test system: Tyrosine-protein kinase ABL1 (Homo sapiens), P00519 [H396P]; experiment: Selectivity interaction (Ambit KINOMEscan and KiNATiv profiling in Jurkat cells) EUB0000090b ABL1; assay type: cell-based; details: at 1 µM
# [3] = target: Mitogen-activated protein kinase 1 (Homo sapiens, UniProt P28482); experiment: Selectivity interaction (Ambit KINOMEscan and KiNATiv profiling in Jurkat cells) EUB0000090b MAPK1; assay type: cell-based; details: at 1 µM
# Chain of Mitogen-activated protein kinase 1 (P28482 whole entry): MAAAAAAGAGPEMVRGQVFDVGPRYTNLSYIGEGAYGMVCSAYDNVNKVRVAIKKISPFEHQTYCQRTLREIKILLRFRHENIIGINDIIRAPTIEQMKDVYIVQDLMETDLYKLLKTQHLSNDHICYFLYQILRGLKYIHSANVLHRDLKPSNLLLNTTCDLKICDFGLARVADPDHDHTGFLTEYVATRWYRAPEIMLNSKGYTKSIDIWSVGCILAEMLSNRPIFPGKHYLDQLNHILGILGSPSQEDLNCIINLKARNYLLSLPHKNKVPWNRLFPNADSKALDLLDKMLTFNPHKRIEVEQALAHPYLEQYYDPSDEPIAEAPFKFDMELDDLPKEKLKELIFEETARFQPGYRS
# [4] = target: T1, Aurora kinase A (Homo sapiens) (UniProt O14965); experiment: Selectivity interaction (ActivX KiNativ screen (kinase selectivity in THP-1 cell lysates)) EUB0000639a STK6; assay type: subcellular; details: lysate, at 0.01 µM
# T1 sequence (whole entry): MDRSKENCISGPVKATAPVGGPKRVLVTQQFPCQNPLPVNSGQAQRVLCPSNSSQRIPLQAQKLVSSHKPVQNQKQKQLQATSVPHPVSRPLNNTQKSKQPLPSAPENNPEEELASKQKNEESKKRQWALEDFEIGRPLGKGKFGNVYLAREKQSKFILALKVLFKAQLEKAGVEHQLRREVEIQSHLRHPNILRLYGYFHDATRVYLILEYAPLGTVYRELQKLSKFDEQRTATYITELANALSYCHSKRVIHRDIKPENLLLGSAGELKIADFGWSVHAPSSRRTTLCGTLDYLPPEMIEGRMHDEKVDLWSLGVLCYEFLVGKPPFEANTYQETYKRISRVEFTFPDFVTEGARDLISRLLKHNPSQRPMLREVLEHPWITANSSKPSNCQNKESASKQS
# [5] = target: T2, Serine/threonine-protein kinase 4 (Homo sapiens) (UniProt Q13043); experiment: Selectivity interaction (Kinase panel (Invitrogen)) EUB0000639a STK4; details: at 200 nM
# T2 sequence (whole entry): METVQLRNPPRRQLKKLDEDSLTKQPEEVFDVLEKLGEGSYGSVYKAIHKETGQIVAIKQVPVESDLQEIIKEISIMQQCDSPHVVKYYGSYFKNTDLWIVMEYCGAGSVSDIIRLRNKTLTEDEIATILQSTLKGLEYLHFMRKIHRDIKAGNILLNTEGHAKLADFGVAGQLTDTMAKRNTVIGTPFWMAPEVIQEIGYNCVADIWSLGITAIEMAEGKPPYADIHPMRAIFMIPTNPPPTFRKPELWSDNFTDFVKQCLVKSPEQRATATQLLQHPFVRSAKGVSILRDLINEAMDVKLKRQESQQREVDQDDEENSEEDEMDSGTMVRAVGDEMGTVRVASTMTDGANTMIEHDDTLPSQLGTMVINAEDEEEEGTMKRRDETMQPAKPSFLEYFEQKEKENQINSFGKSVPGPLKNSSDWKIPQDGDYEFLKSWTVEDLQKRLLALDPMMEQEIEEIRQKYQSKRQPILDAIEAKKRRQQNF
# [6] = target: CDK17/Cyclin-Y (Homo sapiens) (UniProt Q00537+Q8ND76); experiment: Selectivity interaction (Kinase panel (Z-LYTE Assay)) EUB0001632a CDK17; assay type: protein-complex assay; details: at 10 µM
# Chain of CDK17/Cyclin-Y (Homo sapiens) (Q00537 whole entry): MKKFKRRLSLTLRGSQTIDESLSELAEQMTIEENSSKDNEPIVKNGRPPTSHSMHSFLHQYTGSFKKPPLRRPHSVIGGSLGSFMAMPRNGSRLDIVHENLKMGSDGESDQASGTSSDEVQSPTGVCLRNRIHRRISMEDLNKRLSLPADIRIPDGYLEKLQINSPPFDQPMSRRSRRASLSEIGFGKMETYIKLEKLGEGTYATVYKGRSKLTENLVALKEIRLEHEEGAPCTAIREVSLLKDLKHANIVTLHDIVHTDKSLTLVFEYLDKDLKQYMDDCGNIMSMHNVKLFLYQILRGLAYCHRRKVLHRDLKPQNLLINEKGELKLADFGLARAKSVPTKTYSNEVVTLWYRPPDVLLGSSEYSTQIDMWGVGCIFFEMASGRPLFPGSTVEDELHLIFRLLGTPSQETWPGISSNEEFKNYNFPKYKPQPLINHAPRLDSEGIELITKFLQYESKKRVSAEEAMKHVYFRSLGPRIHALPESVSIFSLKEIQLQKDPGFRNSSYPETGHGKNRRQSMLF
# Chain of CDK17/Cyclin-Y (Homo sapiens) (Q8ND76 2-341 partner limits assumed): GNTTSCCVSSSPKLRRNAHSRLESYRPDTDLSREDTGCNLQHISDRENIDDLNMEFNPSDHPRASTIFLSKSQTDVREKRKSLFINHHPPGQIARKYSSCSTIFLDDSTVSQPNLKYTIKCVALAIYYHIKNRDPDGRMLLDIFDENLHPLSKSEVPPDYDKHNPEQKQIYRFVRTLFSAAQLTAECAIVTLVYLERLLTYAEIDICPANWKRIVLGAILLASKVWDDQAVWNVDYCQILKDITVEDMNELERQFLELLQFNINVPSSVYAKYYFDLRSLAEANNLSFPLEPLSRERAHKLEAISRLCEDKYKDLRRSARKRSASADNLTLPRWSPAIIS
# [7] = target: T3, Non-receptor tyrosine-protein kinase TNK1 (Homo sapiens) (UniProt Q13470); experiment: Selectivity interaction (KinomeScan (DiscoverX)) EUB0000695a TNK1; details: at 100 nM
# T3 sequence (whole entry): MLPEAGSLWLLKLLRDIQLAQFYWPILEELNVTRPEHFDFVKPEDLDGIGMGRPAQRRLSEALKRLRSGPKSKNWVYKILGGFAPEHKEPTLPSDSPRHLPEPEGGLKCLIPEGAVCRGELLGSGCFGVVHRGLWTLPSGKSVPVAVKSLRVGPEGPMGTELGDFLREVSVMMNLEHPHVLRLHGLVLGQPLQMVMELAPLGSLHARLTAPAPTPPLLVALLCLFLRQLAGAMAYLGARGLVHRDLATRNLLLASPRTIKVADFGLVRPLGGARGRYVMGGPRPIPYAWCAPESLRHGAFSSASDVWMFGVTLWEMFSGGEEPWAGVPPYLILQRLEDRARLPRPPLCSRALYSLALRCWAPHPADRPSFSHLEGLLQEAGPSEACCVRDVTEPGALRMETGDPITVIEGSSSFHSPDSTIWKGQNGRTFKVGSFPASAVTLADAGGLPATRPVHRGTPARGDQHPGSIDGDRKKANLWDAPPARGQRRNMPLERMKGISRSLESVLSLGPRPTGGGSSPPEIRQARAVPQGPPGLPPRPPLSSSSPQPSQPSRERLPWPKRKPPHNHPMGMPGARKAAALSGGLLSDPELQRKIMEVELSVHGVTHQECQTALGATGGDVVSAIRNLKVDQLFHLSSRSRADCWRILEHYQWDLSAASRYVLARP
# [8] = target: Serine/threonine-protein kinase 24 (Homo sapiens) (UniProt Q9Y6E0); experiment: Selectivity interaction (KinomeScan (DiscoverX)) EUB0000595a STK24; details: at 10 µM
# Chain of Serine/threonine-protein kinase 24 (Homo sapiens) (Q9Y6E0 whole entry, looked up): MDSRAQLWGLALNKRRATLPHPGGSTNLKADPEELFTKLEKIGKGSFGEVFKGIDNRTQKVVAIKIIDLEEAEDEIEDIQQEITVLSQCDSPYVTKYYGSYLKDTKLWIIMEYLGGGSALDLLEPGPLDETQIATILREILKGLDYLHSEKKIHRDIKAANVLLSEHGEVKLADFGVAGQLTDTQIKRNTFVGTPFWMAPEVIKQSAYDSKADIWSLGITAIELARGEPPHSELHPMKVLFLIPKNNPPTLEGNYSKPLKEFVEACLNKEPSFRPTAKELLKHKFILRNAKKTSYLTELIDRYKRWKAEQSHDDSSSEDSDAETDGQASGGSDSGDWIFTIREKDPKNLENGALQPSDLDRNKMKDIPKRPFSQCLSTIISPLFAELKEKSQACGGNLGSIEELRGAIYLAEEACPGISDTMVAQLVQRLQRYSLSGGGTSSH
# [9] = target: T4, NUAK family SNF1-like kinase 2 (Homo sapiens) (UniProt Q9H093); experiment: Selectivity interaction (KinomeScan (DiscoverX)) EUB0000045b NUAK2
# T4 sequence (whole entry): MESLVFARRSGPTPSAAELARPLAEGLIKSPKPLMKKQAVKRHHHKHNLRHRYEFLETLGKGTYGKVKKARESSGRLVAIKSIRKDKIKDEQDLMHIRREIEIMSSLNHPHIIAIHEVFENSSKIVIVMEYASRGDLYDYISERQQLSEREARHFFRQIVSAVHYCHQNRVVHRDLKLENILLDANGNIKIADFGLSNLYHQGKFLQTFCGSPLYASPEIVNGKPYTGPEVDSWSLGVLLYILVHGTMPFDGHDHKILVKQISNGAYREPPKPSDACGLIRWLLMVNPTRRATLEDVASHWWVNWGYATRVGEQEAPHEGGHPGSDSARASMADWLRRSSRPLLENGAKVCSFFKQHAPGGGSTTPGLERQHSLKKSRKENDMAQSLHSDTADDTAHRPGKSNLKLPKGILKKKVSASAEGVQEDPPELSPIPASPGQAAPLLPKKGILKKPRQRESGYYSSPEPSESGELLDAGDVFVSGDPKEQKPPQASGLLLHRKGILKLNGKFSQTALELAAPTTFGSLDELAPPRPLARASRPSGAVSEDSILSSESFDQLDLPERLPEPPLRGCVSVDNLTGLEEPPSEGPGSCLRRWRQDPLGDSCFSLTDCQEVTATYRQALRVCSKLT
# [10] = target: Serine/threonine-protein kinase 26 (Homo sapiens, UniProt Q9P289); experiment: Selectivity interaction (KinomeScan (DiscoverX)) EUB0000655a STK26; details: at 10 µM
# Chain of Serine/threonine-protein kinase 26 (Q9P289 2-416 limits assumed): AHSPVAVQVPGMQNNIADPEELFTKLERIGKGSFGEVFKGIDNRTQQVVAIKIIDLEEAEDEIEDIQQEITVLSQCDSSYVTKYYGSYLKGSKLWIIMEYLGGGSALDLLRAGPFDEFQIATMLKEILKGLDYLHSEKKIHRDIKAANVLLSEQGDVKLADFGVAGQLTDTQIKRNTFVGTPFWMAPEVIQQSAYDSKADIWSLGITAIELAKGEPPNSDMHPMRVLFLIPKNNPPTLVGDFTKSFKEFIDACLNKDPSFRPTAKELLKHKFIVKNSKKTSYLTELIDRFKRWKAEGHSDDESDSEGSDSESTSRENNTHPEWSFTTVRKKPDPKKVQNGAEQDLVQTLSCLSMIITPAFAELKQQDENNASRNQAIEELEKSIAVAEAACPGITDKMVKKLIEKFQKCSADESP
# [11] = target: Calcium/calmodulin-dependent protein kinase type II subunit gamma (Homo sapiens) (UniProt Q13555); experiment: Selectivity interaction (ActivX KiNativ screen (ex vivo kinase selectivity in human PBMCs)) EUB0001619a CAMK2G; assay type: cell-based; details: PBMC, at 1 µM
# Chain of Calcium/calmodulin-dependent protein kinase type II subunit gamma (Homo sapiens) (Q13555 whole entry): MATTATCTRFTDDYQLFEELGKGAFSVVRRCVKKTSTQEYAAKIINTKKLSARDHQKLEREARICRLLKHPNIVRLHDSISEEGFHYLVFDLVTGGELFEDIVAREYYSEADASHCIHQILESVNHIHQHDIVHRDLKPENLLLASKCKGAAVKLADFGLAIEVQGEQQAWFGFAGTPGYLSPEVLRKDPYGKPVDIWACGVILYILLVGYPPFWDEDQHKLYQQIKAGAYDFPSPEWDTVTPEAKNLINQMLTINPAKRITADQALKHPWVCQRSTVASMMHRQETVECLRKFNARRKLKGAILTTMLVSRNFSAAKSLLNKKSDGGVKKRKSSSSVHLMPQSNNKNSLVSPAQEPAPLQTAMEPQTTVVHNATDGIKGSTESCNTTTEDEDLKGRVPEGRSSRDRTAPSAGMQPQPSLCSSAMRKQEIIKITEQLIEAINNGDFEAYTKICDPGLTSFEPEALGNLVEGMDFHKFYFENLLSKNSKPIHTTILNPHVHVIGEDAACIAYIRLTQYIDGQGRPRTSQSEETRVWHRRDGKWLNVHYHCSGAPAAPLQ
# [12] = target: Serine/threonine-protein kinase B-raf (Homo sapiens) (UniProt P15056); experiment: Selectivity interaction (Kinase panel (DSF assay)) EUB0001559a BRAF
# Chain of Serine/threonine-protein kinase B-raf (Homo sapiens) (P15056 whole entry): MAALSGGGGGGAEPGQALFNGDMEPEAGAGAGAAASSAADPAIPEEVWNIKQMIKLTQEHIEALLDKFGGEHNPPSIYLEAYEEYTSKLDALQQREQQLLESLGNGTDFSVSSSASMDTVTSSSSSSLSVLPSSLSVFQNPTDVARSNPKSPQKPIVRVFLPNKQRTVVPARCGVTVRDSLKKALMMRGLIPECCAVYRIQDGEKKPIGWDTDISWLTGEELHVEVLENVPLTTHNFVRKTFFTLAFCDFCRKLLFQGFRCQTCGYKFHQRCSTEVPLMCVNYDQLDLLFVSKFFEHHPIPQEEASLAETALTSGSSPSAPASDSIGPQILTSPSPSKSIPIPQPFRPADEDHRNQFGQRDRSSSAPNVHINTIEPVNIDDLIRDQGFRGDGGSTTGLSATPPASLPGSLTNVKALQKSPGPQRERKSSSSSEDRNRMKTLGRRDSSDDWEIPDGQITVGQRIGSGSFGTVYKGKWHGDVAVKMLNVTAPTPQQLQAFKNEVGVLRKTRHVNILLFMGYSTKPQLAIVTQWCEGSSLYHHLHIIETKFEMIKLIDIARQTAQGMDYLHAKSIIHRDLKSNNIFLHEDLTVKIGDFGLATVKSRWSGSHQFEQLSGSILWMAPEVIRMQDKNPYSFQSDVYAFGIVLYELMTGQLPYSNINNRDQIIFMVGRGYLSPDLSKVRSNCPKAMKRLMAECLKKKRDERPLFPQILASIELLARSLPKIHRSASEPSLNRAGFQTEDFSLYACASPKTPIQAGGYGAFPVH
# Chain of Protein kinase C delta type (Homo sapiens) (Q05655 whole entry, looked up): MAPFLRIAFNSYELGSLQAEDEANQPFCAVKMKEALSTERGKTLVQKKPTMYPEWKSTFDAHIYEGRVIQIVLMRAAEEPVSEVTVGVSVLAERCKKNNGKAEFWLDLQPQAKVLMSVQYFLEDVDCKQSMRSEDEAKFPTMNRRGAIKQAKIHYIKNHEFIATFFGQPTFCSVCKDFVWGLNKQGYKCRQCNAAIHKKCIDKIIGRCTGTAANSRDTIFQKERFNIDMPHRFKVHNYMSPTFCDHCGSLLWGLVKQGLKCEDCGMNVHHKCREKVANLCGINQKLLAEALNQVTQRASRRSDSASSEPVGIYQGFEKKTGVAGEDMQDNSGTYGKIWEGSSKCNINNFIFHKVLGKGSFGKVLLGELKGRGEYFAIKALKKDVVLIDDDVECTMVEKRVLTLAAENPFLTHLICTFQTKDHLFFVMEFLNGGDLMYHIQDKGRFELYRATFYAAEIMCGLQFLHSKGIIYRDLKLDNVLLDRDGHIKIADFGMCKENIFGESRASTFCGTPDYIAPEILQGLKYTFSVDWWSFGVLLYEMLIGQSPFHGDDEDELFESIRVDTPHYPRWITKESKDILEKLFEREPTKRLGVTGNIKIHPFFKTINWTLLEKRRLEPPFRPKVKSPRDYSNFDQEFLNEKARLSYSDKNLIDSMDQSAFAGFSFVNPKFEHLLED
structure (smiles),measurement,setting,value
COc1cc(Nc2nc(C)cc(-c3cnn4nc(OC)ccc34)n2)cc(C(F)(F)F)c1,% of control,[1],97%
CN(C)C/C=C/C(=O)Nc1ccc(C(=O)N2CCCC(Nc3ncc(Cl)c(-c4c[nH]c5ccccc45)n3)C2)cc1 (stereo not drawn),% of control,[2],100%
same,% of control,[3],85%
CC[C@@H]1[C@H](F)C(=O)N[C@@H]1COc1nccc2cc(C(N)=O)c(OC)cc12 [ZIMLOVISERTIB],% of inhibition,[4],-3.4%
same,% of inhibition,[5],13.8%
Cn1cc(-n2cnc3c(NCc4nc5cc(Cl)c(Cl)cc5[nH]4)nc(N4CCOCC4)nc32)cn1,% of control,[6],8.66%
Cc1cc(F)c(C(=O)Nc2cccc(-c3nncn3C(C)C)n2)cc1-n1cnc(C2CC2)c1,% of control,[7],100%
COCC(=O)NC/C=C/c1ccc2ncnc(Nc3ccc(Oc4ccc(C)nc4)c(C)c3)c2c1 [CP-724714],% of control,[8],90%
C=CC(=O)Nc1cc(-n2c(=O)ccc3cnc4ccc(-c5ccc(NS(C)(=O)=O)cc5)cc4c32)ccc1C,% of control,[9]; at 1 µM,100%
same,% of control,[9]; at 10 µM,100%
CN(C)CCOc1ccc(-c2nc(-c3ccncc3)c(-c3ccc4c(c3)CC/C4=N\O)[nH]2)cc1,% of control,[10],91%
N#Cc1cccc(-c2c[nH]c3ncnc(N4CCOCC4)c23)c1,% of inhibition,[11],3%
CN(C(=O)c1cnn2cccnc12)c1cc2c(cc1N1CCOCC1)C(=O)N(C[C@@H](F)C(C)(C)O)C2,dTM,[12],1.7 K
